# Values joined by “and” are separate entries in the source; they are usually repeats but may differ in a detail not shown here. Identical values can stand only once. Toxic doses and inconclusive results are not listed.
# System: B6C3F1 mice, intracerebral ependymoblastoma, median survival T/C
# Assay: NCI In Vivo Anticancer Drug Screen. Data for tumor model Ependymoblastoma (intracerebral) in B6C3F1 mice
# Details: endpoint: median survival time, higher = longer survival
# Method: The antitumor activity of compounds was measured in mice bearing transplantable tumors. Survival or tumor size were measured and the results are expressed as the measurement made in the treated group (T) divided by the measurement made in the vehicle treated control group (C). The tumor model used in this assay is Ependymoblastoma (intracerebral) in B6C3F1 mice
# [1] = dose: 16.0 mg/kg/injection, schedule: Q01DX005 (ip), vehicle: saline with Tween-80
# [2] = dose: 16.0 mg/kg/injection, schedule: Q01DX005 (ip), vehicle: saline
# [3] = dose: 32.0 mg/kg/injection, schedule: Q01DX005 (ip), vehicle: Klucel (hydroxypropylcellulose) (HPC)
# [4] = dose: 32.0 mg/kg/injection, schedule: Q01DX005 (ip), vehicle: saline with Tween-80
# [5] = dose: 32.0 mg/kg/injection, schedule: Q01DX005 (ip), vehicle: saline
# [6] = dose: 64.0 mg/kg/injection, schedule: Q01DX005 (ip), vehicle: Klucel (hydroxypropylcellulose) (HPC)
# [7] = dose: 64.0 mg/kg/injection, schedule: Q01DX005 (ip), vehicle: saline with Tween-80
# [8] = dose: 64.0 mg/kg/injection, schedule: Q01DX005 (ip), vehicle: saline
# [9] = dose: 128.0 mg/kg/injection, schedule: Q01DX005 (ip), vehicle: Klucel (hydroxypropylcellulose) (HPC)
# [10] = dose: 128.0 mg/kg/injection, schedule: Q01DX005 (ip), vehicle: saline with Tween-80
# [11] = dose: 128.0 mg/kg/injection, schedule: Q01DX005 (ip), vehicle: saline
# [12] = dose: 256.0 mg/kg/injection, schedule: Q01DX005 (ip), vehicle: Klucel (hydroxypropylcellulose) (HPC)
# [13] = dose: 512.0 mg/kg/injection, schedule: Q01DX005 (ip), vehicle: Klucel (hydroxypropylcellulose) (HPC)
# [14] = dose: 1024.0 mg/kg/injection, schedule: Q01DX005 (ip), vehicle: Klucel (hydroxypropylcellulose) (HPC)
# [15] = dose: 8.0 mg/kg/injection, schedule: Q01DX005 (ip), vehicle: Klucel (hydroxypropylcellulose) (HPC)
# [16] = dose: 16.0 mg/kg/injection, schedule: Q01DX005 (ip), vehicle: Klucel (hydroxypropylcellulose) (HPC)
# [17] = dose: 256.0 mg/kg/injection, schedule: Q01DX005 (ip), vehicle: saline with Tween-80
# [18] = dose: 25.0 mg/kg/injection, schedule: Q01DX005 (ip), vehicle: saline
# [19] = dose: 256.0 mg/kg/injection, schedule: Q01DX005 (ip), vehicle: saline
# [20] = dose: 1024.0 mg/kg/injection, schedule: Q01DX005 (ip), vehicle: saline
# [21] = dose: 4.0 mg/kg/injection, schedule: Q01DX005 (ip), vehicle: saline
# [22] = dose: 0.25 mg/kg/injection, schedule: Q01DX005 (ip), vehicle: saline
# [23] = dose: 1.0 mg/kg/injection, schedule: Q01DX005 (ip), vehicle: saline
structure (smiles),measurement,setting,value
CN(Cc1cnc2nc(N)nc(N)c2n1)c1c(Cl)cc(C(=O)NC(CCC(=O)O)C(=O)O)cc1Cl (stereo not drawn),T/C,[1],95 % of control and 114 % of control
same,T/C,[2],100 % of control
same,T/C,[3],100 % of control
same,T/C,[4],97 % of control and 107 % of control
same,T/C,[5],92 % of control and 103 % of control
same,T/C,[6],104 % of control
same,T/C,[7],100 % of control and 107 % of control
same,T/C,[8],101 % of control and 104 % of control
same,T/C,[9],89 % of control
same,T/C,[10],98 % of control and 100 % of control
same,T/C,[11],100 % of control and 106 % of control
same,T/C,[12],96 % of control
Cc1c[nH]c(=O)[nH]c1=O,T/C,[6],104 % of control
same,T/C,[9],92 % of control
same,T/C,[12],99 % of control
same,T/C,[13],95 % of control
same,T/C,[14],95 % of control
C[C@]12C=CC(=O)C=C1CC[C@@H]1[C@@H]2CC[C@]2(C)OC(=O)CC[C@@H]12,T/C,[15],98 % of control and 100 % of control
same,T/C,"dose: 8.0 mg/kg/injection, schedule: Q01DX005 (ip), vehicle: saline with Tween-80",100 % of control and 113 % of control
same,T/C,[16],101 % of control and 106 % of control
same,T/C,[1],97 % of control and 110 % of control
same,T/C,[3],94 % of control and 95 % of control
same,T/C,[4],97 % of control and 105 % of control
same,T/C,[6],98 % of control and 101 % of control
same,T/C,[7],97 % of control and 105 % of control
same,T/C,[9],96 % of control and 86 % of control
same,T/C,[10],96 % of control and 108 % of control
same,T/C,[12],90 % of control
same,T/C,[17],105 % of control
Cc1nc(N)nc(N)c1-c1ccc(Cl)c(Cl)c1,T/C,"dose: 1.25 mg/kg/injection, schedule: Q01DX005 (ip), vehicle: saline",106 % of control
same,T/C,"dose: 2.5 mg/kg/injection, schedule: Q01DX005 (ip), vehicle: saline",102 % of control
same,T/C,"dose: 5.0 mg/kg/injection, schedule: Q01DX005 (ip), vehicle: saline",120 % of control
CN(N=O)C(=O)N[C@@H](C=O)[C@@H](O)[C@H](O)[C@H](O)CO,T/C,"dose: 6.25 mg/kg/injection, schedule: Q01DX009 (ip), vehicle: citric acid",96 % of control
same,T/C,"dose: 12.5 mg/kg/injection, schedule: Q01DX005 (ip), vehicle: saline",103 % of control
same,T/C,"dose: 12.5 mg/kg/injection, schedule: Q01DX009 (ip), vehicle: citric acid",108 % of control
same,T/C,[18],122 % of control
same,T/C,"dose: 25.0 mg/kg/injection, schedule: Q01DX009 (ip), vehicle: citric acid",117 % of control
same,T/C,"dose: 64.0 mg/kg/injection, schedule: Q01DX001 (ip), vehicle: other",108 % of control
same,T/C,"dose: 75.0 mg/kg/injection, schedule: Q01DX001 (ip), vehicle: saline",121 % of control
same,T/C,"dose: 100.0 mg/kg/injection, schedule: Q01DX005 (ip), vehicle: saline",113 % of control
same,T/C,"dose: 128.0 mg/kg/injection, schedule: Q01DX001 (ip), vehicle: other",105 % of control
same,T/C,"dose: 200.0 mg/kg/injection, schedule: Q01DX005 (ip), vehicle: saline",113 % of control
same,T/C,"dose: 256.0 mg/kg/injection, schedule: Q01DX001 (ip), vehicle: other",101 % of control
same,T/C,"dose: 400.0 mg/kg/injection, schedule: Q01DX005 (ip), vehicle: saline",103 % of control
same,T/C,"dose: 512.0 mg/kg/injection, schedule: Q01DX001 (ip), vehicle: other",108 % of control
COc1cc2c(c3c1c(=O)c1ccccc1n3C)C=CC(C)(C)O2,T/C,[6],114 % of control
same,T/C,"dose: 128.0 mg/kg/injection, schedule: Q01DX005 (ip), vehicle: suspension in saline",108 % of control
same,T/C,"dose: 256.0 mg/kg/injection, schedule: Q01DX005 (ip), vehicle: suspension in saline",120 % of control
O=c1ccn(C2OC(CO)C(O)C2O)c(=O)[nH]1 (stereo not drawn),T/C,[7],113 % of control
same,T/C,[8],109 % of control
same,T/C,[10],90 % of control
same,T/C,[11],94 % of control
same,T/C,[17],109 % of control
same,T/C,[19],100 % of control
same,T/C,"dose: 512.0 mg/kg/injection, schedule: Q01DX005 (ip), vehicle: saline with Tween-80",99 % of control
same,T/C,"dose: 512.0 mg/kg/injection, schedule: Q01DX005 (ip), vehicle: saline",94 % of control
same,T/C,"dose: 1024.0 mg/kg/injection, schedule: Q01DX005 (ip), vehicle: saline with Tween-80",99 % of control
same,T/C,[20],96 % of control
CCOC(=O)CNC(=O)CCCCSc1ncnc2nc[nH]c12,T/C,[21],106 % of control
same,T/C,"dose: 16.0 mg/kg/injection, schedule: Q01DX001 (oral), vehicle: Klucel (hydroxypropylcellulose) (HPC)",95 % of control
same,T/C,[16],100 % of control and 105 % of control
same,T/C,[2],95 % of control and 101 % of control
same,T/C,[3],96 % of control
same,T/C,"dose: 64.0 mg/kg/injection, schedule: Q01DX001 (oral), vehicle: Klucel (hydroxypropylcellulose) (HPC)",92 % of control
same,T/C,[6],95 % of control and 104 % of control and 109 % of control
same,T/C,[8],96 % of control and 109 % of control
same,T/C,[9],98 % of control
same,T/C,"dose: 256.0 mg/kg/injection, schedule: Q01DX001 (oral), vehicle: Klucel (hydroxypropylcellulose) (HPC)",105 % of control
same,T/C,[12],102 % of control and 108 % of control
same,T/C,[19],105 % of control and 112 % of control
same,T/C,[13],96 % of control
same,T/C,[14],100 % of control and 119 % of control and 121 % of control
same,T/C,[20],111 % of control and 124 % of control
C1CN1c1nc(N2CC2)nc(N2CC2)n1,T/C,"dose: 0.06 mg/kg/injection, schedule: Q01DX005 (ip), vehicle: saline",110 % of control
same,T/C,"dose: 0.13 mg/kg/injection, schedule: Q01DX005 (ip), vehicle: saline",106 % of control and 119 % of control
same,T/C,[22],115 % of control and 124 % of control
same,T/C,[23],189 % of control and 238 % of control
COc1ccc2c(c1OC(C)=O)-c1cc(OC(C)=O)cc3c1C(C2)N(C(=O)CBr)CC3 (stereo not drawn),T/C,[18],96 % of control
same,T/C,"dose: 50.0 mg/kg/injection, schedule: Q01DX005 (ip), vehicle: saline",91 % of control
COc1ccc2c(c1O)-c1cccc3c1[C@@H](C2)N(CCCl)CC3,T/C,[22],105 % of control
same,T/C,"dose: 0.5 mg/kg/injection, schedule: Q01DX005 (ip), vehicle: saline",100 % of control
same,T/C,[23],96 % of control
same,T/C,"dose: 2.0 mg/kg/injection, schedule: Q01DX005 (ip), vehicle: saline",99 % of control and 87 % of control
same,T/C,"dose: 4.0 mg/kg/injection, schedule: Q01DX005 (ip), vehicle: Klucel (hydroxypropylcellulose) (HPC)",98 % of control
same,T/C,[21],104 % of control
same,T/C,[15],98 % of control
same,T/C,"dose: 8.0 mg/kg/injection, schedule: Q01DX005 (ip), vehicle: saline",93 % of control
same,T/C,[2],88 % of control
same,T/C,[5],86 % of control
O=P1(N(CCCl)CCCl)NCCCO1 (stereo not drawn),T/C,"dose: 40.0 mg/kg/injection, schedule: Q01DX001 (ip), vehicle: saline",109 % of control
same,T/C,"dose: 320.0 mg/kg/injection, schedule: Q01DX001 (ip), vehicle: saline",163 % of control
COc1cc(C[C@H]2c3cc(OC)c(OC)cc3CCN2C)c(Oc2cc3c(cc2OC)-c2c(OC)c(OC)cc4c2[C@H](C3)N(C)CC4)cc1OC,T/C,"dose: 12.5 mg/kg/injection, schedule: Q01DX005 (ip), vehicle: Klucel (hydroxypropylcellulose) (HPC)",94 % of control
same,T/C,"dose: 25.0 mg/kg/injection, schedule: Q01DX005 (ip), vehicle: Klucel (hydroxypropylcellulose) (HPC)",100 % of control
same,T/C,"dose: 50.0 mg/kg/injection, schedule: Q01DX005 (ip), vehicle: Klucel (hydroxypropylcellulose) (HPC)",100 % of control and 102 % of control and 105 % of control
same,T/C,"dose: 100.0 mg/kg/injection, schedule: Q01DX005 (ip), vehicle: Klucel (hydroxypropylcellulose) (HPC)",102 % of control
COc1ccc2c(c1)CCC(c1ccccc1)=C2c1ccc(OCCN2CCCC2)cc1,T/C,[15],106 % of control
same,T/C,"dose: 12.0 mg/kg/injection, schedule: Q01DX005 (ip), vehicle: saline with Tween-80",108 % of control
same,T/C,[16],106 % of control
same,T/C,"dose: 24.0 mg/kg/injection, schedule: Q01DX005 (ip), vehicle: saline with Tween-80",110 % of control
same,T/C,[3],110 % of control
same,T/C,"dose: 48.0 mg/kg/injection, schedule: Q01DX005 (ip), vehicle: saline with Tween-80",104 % of control
same,T/C,[6],101 % of control
same,T/C,"dose: 96.0 mg/kg/injection, schedule: Q01DX005 (ip), vehicle: saline with Tween-80",107 % of control
